Data on 28 compounds can be found in patent US20170334899A1, “AMINO-SUBSTITUTED ISOTHIAZOLES” (Bayer Pharma Aktiengesellschaft, priority 2014, published 2017).

One may read the IC50 as the concentration at which inhibition is half-maximal.

This experiment has as its system human cervical tumor cell line HeLa (ATCC CCL-2). Put plainly: SAC-Formation - Nocodazole-Induced Assay. It counts as cell-based. The settings on record: Homo sapiens, HeLa, 24 h, HeLa cells, nocodazole 0.1 μg/ml together with test compound, decrease of mitotic cells (phospho-histone H3 Ser10). The method, boiled down:
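Loss of phospho-histone H3 Ser10-positive cells, counted against Hoechst-stained nuclei by high-content imaging, marked mitotic breakthrough. Compounds (0.005–20 μM, 0.5% DMSO) were co-dosed with 0.1 μg/ml nocodazole onto HeLa cells for 24 h at 37 °C. Curves were fitted with a four-parameter Hill equation.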
With `Cc1nsc(Nc2cnccn2)c1C(=O)Nc1ccc(OCCCN)nc1` [Example 48, N-[6-(3-Aminopropoxy)pyridin-3-yl]-3-methyl-5-(pyrazin-2-ylamino)-1,2-thiazole-4-carboxamide], the IC50 came out at 5800 nM.

In the case of `Cc1nsc(Nc2cnc(C(F)(F)F)cn2)c1C(=O)Nc1ccc(O[C@@H]2CN(CCC(F)(F)F)C[C@@H]2F)nc1` [Example 409, N-(6-{[(3R,4S)-4-Fluoro-1-(3,3,3-trifluoropropyl)pyrrolidin-3-yl]oxy}pyridin-3-yl)-3-methyl-5-{[5-(trifluoromethyl)pyrazin-2-yl]amino}-1,2-thiazole-4-carboxamide], the half-inhibitory concentration (IC50) is 21 nM.

With `Cc1nsc(Nc2cnc(C(F)(F)F)cn2)c1C(=O)Nc1ccc(F)c(OC[C@H]2CCCN(CC(F)F)C2)c1` [Example 400, N-(3-{[(3S)-1-(2,2-difluoroethyl)piperidin-3-yl]methoxy}-4-fluorophenyl)-3-methyl-5-{[5-(trifluoromethyl)pyrazin-2-yl]amino}-1,2-thiazole-4-carboxamide], the IC50 amounted to 81 nM.

For the compound `Cc1nsc(Nc2cnc(C(F)(F)F)cn2)c1C(=O)Nc1ccc(O[C@@H]2CN(CC(F)(F)F)C[C@@H]2F)nc1` [Example 410, N-(6-{[(3R,4S)-4-Fluoro-1-(2,2,2-trifluoroethyl)pyrrolidin-3-yl]oxy}pyridin-3-yl)-3-methyl-5-{[5-(trifluoromethyl)pyrazin-2-yl]amino}-1,2-thiazole-4-carboxamide], the IC50 was 10 nM.

As for `Cc1nsc(Nc2cncc(C(F)(F)F)n2)c1C(=O)Nc1ccc(OCCN(C)C(=O)OC(C)(C)C)nc1` [Example 430, tert-Butyl methyl{2-[(5-{[(3-methyl-5-{[6-(trifluoromethyl)pyrazin-2-yl]amino}-1,2-thiazol-4-yl)carbonyl]amino}pyridin-2-yl)oxy]ethyl}carbannate], the IC50 came to 11 nM.

On to `Cc1nsc(Nc2ccc(C#N)cn2)c1C(=O)Nc1ccc(OCCCNC(=O)OC(C)(C)C)nc1` [Example 46, tert-Butyl [3-({5-[({5-[(5-cyanopyridin-2-yl)amino]-3-methyl-1,2-thiazol-4-yl}-carbonyl)amino]pyridin-2-yl}oxy)propyl]carbamate], for which the IC50 was determined as 41 nM.

On to `Cc1nsc(Nc2cnc(C(F)(F)F)cn2)c1C(=O)Nc1ccc(F)c(O[C@H]2CCN(CC(F)F)C2)c1` [Example 417, N-(3-{[(3S)-1-(2,2-Difluoroethyl)pyrrolidin-3-yl]oxy}-4-fluorophenyl)-3-methyl-5-{[5-(trifluoromethyl)pyrazin-2-yl]amino}-1,2-thiazole-4-carboxamide], for which the IC50 was determined as 9.4 nM.

On to `Cc1nsc(Nc2ccc(C#N)cn2)c1C(=O)Nc1ccc(OC[C@H]2CCN(CC(F)(F)F)C2)nc1` [Example 405, 5-[(5-Cyanopyridin-2-yl)amino]-3-methyl-N-(6-{[(35)-1-(2,2,2-trifluoroethyl)pyrrolidin-3-yl]methoxy}pyridin-3-yl)-1,2-thiazole-4-carboxamide], for which the half-inhibitory concentration (IC50) came to 86 nM.

Take `Cc1nsc(Nc2cnc(C(F)(F)F)cn2)c1C(=O)Nc1ccc(F)c(O[C@@H]2CCN(CC(F)F)C2)c1` [Example 412, N-(3-{[(3R)-1-(2,2-Difluoroethyl)pyrrolidin-3-yl]oxy}-4-fluorophenyl)-3-methyl-5-{[5-(trifluoromethyl)pyrazin-2-yl]amino}-1,2-thiazole-4-carboxamide]: the half-maximal inhibitory concentration (IC50) was found to be 13 nM.

For `CC(=O)Nc1ccc(NC(=O)c2c(C)nsc2Nc2ccc(C#N)cn2)cn1` [Example 435, N-(6-Acetamidopyridin-3-yl)-5-[(5-cyanopyridin-2-yl)amino]-3-methyl-1,2-thiazole-4-carboxamide], the half-maximal inhibitory concentration (IC50) was 12000 nM.

Consider `Cc1nsc(Nc2cnc3ccccc3n2)c1C(=O)Nc1cccc(C(=O)N[C@@H](CCC(N)=O)C(=O)OC(C)(C)C)c1` [Example 56, tert-butyl N^2-[3-({[3-methyl-5-(quinoxalin-2-ylamino)-1,2-thiazol-4-yl]carbonyl}amino)-benzoyl]glutaminate], for which the IC50 turned out to be 1200 nM.

As for `Cc1nsc(Nc2cnc(C(F)(F)F)cn2)c1C(=O)Nc1ccc(OCCNC(=O)C(F)(F)F)nc1` [Example 425, 3-Methyl-N-(6-{2-[(trifluoroacetyl)amino]ethoxy}pyridin-3-yl)-5-{[5-(trifluoro-methyl)pyrazin-2-yl]amino}-1,2-thiazole-4-carboxamide], the IC50 was 720 nM.

For the compound `Cc1nsc(Nc2cnc(C(F)(F)F)cn2)c1C(=O)Nc1ccc(F)c(OC[C@H]2CCCN(CCC(F)(F)F)C2)c1` [Example 418, N-(4-Fluoro-3-{[(3S)-1-(3,3,3-trifluoropropyl)piperidin-3-yl]methoxy}phenyl)-3-methyl-5-{[5-(trifluoromethyl)pyrazin-2-yl]amino}-1,2-thiazole-4-carboxamide], the IC50 was 210 nM.

Regarding `Cc1nsc(Nc2cnc(C(F)(F)F)cn2)c1C(=O)Nc1ccc(OC2CCNCC2)c(F)c1` [Example 431, N-[3-Fluoro-4-(piperidin-4-yloxy)phenyl]-3-methyl-5-{[5-(trifluoromethyl)pyrazin-2-yl]amino}-1,2-thiazole-4-carboxamide], the IC50 worked out at 10000 nM.

`Cc1nsc(Nc2cnc3ccccc3n2)c1C(=O)Nc1cccc(C(=O)N2CCOCC2)c1` [Example 52, 3-Methyl-N-[3-(morpholin-4-ylcarbonyl)phenyl]-5-(quinoxalin-2-ylamino)-1,2-thiazole-4-carboxamide]: the IC50 was 28 nM.

For the compound `Cc1nsc(Nc2ccc(C#N)cn2)c1C(=O)Nc1ccc(OC2CCCN(CC(F)F)C2)nc1` (stereo not shown) [Example 39, 5-[(5-Cyanopyridin-2-yl)amino]-N-(6-{[1-(2,2-difluoroethyl)piperidin-3-yl]oxy}-pyridin-3-yl)-3-methyl-1,2-thiazole-4-carboxamide], the IC50 turned out to be 15 nM.

Consider `Cc1nsc(Nc2cnc3ccccc3n2)c1C(=O)Nc1cccc(C(=O)NC(C)(C)C)c1` [Example 53, N-[3-(tert-Butylcarbamoyl)-phenyl]-3-methyl-5-(quinoxalin-2-ylamino)-1,2-thiazole-4-carboxamide], for which the IC50 turned out to be 950 nM.

Consider `Cc1nsc(Nc2cnc(C(F)(F)F)cn2)c1C(=O)Nc1ccc(F)c(OC[C@@H]2CCN(CC(F)F)C2)c1` [Example 403, N-(3-{[(3R)-1-(2,2-difluoroethyl)pyrrolidin-3-yl]methoxy}-4-fluorophenyl)-3-methyl-5-{[5-(trifluoromethyl)pyrazin-2-yl]amino}-1,2-thiazole-4-carboxamide], for which the IC50 was 30 nM.

Take `Cc1nsc(Nc2cc(C#N)ccn2)c1C(=O)Nc1ccc(OCCCNC(=O)OC(C)(C)C)nc1` [Example 43, tert-Butyl [3-({5-[({5-[(4-cyanopyridin-2-yl)amino]-3-methyl-1,2-thiazol-4-yl}-carbonyl)amino]pyridin-2-yl}oxy)propyl]carbamate]: the 50% inhibitory concentration (IC50) worked out at 130 nM.

Regarding `COC(=O)c1cccc(NC(=O)c2c(C)nsc2Nc2cnc3ccccc3n2)c1` [Example 50, Methyl 3-({[3-methyl-5-(quinoxalin-2-ylamino)-1,2-thiazol-4-yl]carbonyl}amino)-benzoate], the IC50 turned out to be 4500 nM.

For the compound `CCN1CCC(Oc2ccc(NC(=O)c3c(C)nsc3Nc3cnc(C(F)(F)F)cn3)cn2)C(F)(F)C1` (stereo not shown) [Example 406, N-{6-[(1-Ethyl-3,3-difluoropiperidin-4-yl)oxy]pyridin-3-yl}-3-methyl-5-{[5-(trifluoromethyl)pyrazin-2-yl]amino}-1,2-thiazole-4-carboxamide], the IC50 is 33 nM.

For `Cc1nsc(Nc2ccc(C#N)cn2)c1C(=O)Nc1ccc(OC2CCCN(C(=O)OC(C)(C)C)C2)nc1` (stereo not shown) [Example 36, tert-Butyl 3-({5-[({5-[(5-cyanopyridin-2-yl)amino]-3-methyl-1,2-thiazol-4-yl}-carbonyl)amino]pyridin-2-yl}oxy)piperidine-1-carboxylate], the half-inhibitory concentration (IC50) is 210 nM.

For the compound `Cc1nsc(Nc2cnc3ccccc3n2)c1C(=O)Nc1cccc(C(=O)O)c1` [Example 51, 3-({[3-Methyl-5-(quinoxalin-2-ylamino)-1,2-thiazol-4-yl]carbonyl}amino)benzoic acid], the IC50 worked out at 20000 nM.

Take `Cc1nsc(Nc2cc(C#N)ccn2)c1C(=O)Nc1ccc(OCCCNCC(F)F)nc1` [Example 45, 5-[(4-Cyanopyridin-2-yl)amino]-N-(6-{3-[(2,2-difluoroethyl)amino]propoxy}pyridin-3-yl)-3-methyl-1,2-thiazole-4-carboxamide]: the IC50 amounted to 3500 nM.

In the case of `Cc1nsc(Nc2cnc(C(F)(F)F)cn2)c1C(=O)Nc1ccc(OCC2CCN(CC(F)F)CC2(F)F)nc1` (stereo not shown) [Example 401, N-(6-{[1-(2,2-difluoroethyl)-3,3-difluoropiperidin-4-yl]methoxy}pyridin-3-yl)-3-methyl-5-{[5-(trifluoromethyl)pyrazin-2-yl]amino}-1,2-thiazole-4-carboxamide], the IC50 is 27 nM.

For `Cc1nsc(Nc2cnc(C(F)(F)F)cn2)c1C(=O)Nc1ccc(F)c(OC[C@H]2CCCN(CC(F)(F)F)C2)c1` [Example 419, N-(4-Fluoro-3-{[(3S)-1-(2,2,2-trifluoroethyl)piperidin-3-yl]methoxy}phenyl)-3-methyl-5-{[5-(trifluoromethyl)pyrazin-2-yl]amino}-1,2-thiazole-4-carboxamide], the concentration for half-maximal inhibition (IC50) was found to be 38 nM.

As for `Cc1nsc(Nc2cc(C#N)ccn2)c1C(=O)Nc1ccc(OCCCN)nc1` [Example 44, N-[6-(3-Aminopropoxy)pyridin-3-yl]-5-[(4-cyanopyridin-2-yl)amino]-3-methyl-1,2-thiazole-4-carboxamide], the IC50 came out at 20000 nM.

Turning to `Cc1nsc(Nc2cnc(C(F)(F)F)cn2)c1C(=O)Nc1ccc(F)c(O[C@@H]2CCN(CC(F)(F)F)C2)c1` [Example 413, N-(4-Fluoro-3-{[(3R)-1-(2,2,2-trifluoroethyl)pyrrolidin-3-yl]oxy}phenyl)-3-methyl-5-{[5-(trifluoromethyl)pyrazin-2-yl]amino}-1,2-thiazole-4-carboxamide], the IC50 turned out to be 17 nM.
